Laboratory results taken from patent US12208071B2, “Glucagon receptor antagonists” (LIGAND PHARMACEUTICALS INCORPORATED, priority 2018, dated 2025).
“Also recorded” adds a separate entry of the source.

How the values were obtained:
[1] = Aqueous solubility, 24 hours at 25° C., HPLC; assay type: physicochemical; settings: for solubility at 24 h: 25 °C, thermodynamic from solid; for solubility at 24 h / Solubility: 24 hours at 25° C., n = 2
Experimental: The testing media: Water, pH 4.0, 6.8, 7.4, 10.0 USP buffers (50 mM), 0.1N HCl, 0.01N HCl, SGF, FaSSIF, FeSSIF.
About 10 mg of Polymorph Form A was weighed and added to a 1.5 mL vial, and then 1.0 mL of aqueous media was added into the vial. The vial was shaken for 24 hours at 25° C. After equilibration for 24 hours, the mixture was centrifuged at 14000 rpm for 10 mins. The concentration of supernatant was checked by HPLC and the residuals were checked by XRPD. The final pH of supernatant was recorded. Experiments were conducted in duplicate.

[2] = pKa measurement (Sirius T3, pH-metric and UV-metric); assay type: physicochemical; settings: pH-metric (MeOH, DMSO, Dioxane co-solvent) and UV-metric (DMSO) methods, pH 1.0 to pH 11.0
Experimental: There are two methods available on the Sirius T3 for pKa measurement: potentiometric titration and spectroscopic (UV) titration.
Potentiometric Titration Method is a method which works for any ionicable compound and its standard working range is pH 3.0 to pH 11.0. […] Where this cannot be achieved, the use of organic co-solvents to enhance the solubility is employed.
Its available pH range is typically between 0.5 and 13.5. A compound concentration of 50 μM is typically used, i.e., ten fold lower than the pH-metric method. Co-solvent determination may also be performed when the assayed compounds remain insoluble under all other conditions.
When co-solvent solutions had been employed by pH-metric method or UV-metric method, the psKa values are extrapolated to zero percent organic content using the Yasuda-Shedlovsky extrapolation procedure, which yields extrapolated aqueous pKa values and slope information which can be used to ascertain the acidic/basic characteristics of the ionisable groups.
About 1 mg of Polymorph Form A was weighed into a sample vial, about 1.5 mL of co-solvent (60v % DMSO, 80v % MeOH or 60v % Dioxane) was added into the vial manually, then titrated with acid or base to obtain a psKa value with co-solvent and water, and extrapolated to get aqueous pKa value. Tables 7-9 below and FIGS. 7A-9B provide the results of pKa determination by pH metric method. […]

Structure (SMILES): Cc1cc(C)c(-c2ccc(NC(=O)[C@H](Cc3ccc(C(=O)NCCS(=O)(=O)[O-])cc3)c3ccc(-c4ccc(C(C)(C)C)cc4)cc3)cc2)c(C)c1.[Na+] [Polymorph Form A, Sodium (R)-2-(4-(2-(4′-(tert-butyl)-[1,1′-biphenyl]-4-yl)-3-oxo-3-((2′,4′,6′-trimethyl-[1,1′-biphenyl]-4-yl)amino)propyl)benzamido)ethane-1-sulfonate]
- Form (XRPD of residual after solubility test) ([1]; 0.01N HCl): Form A
- solubility at 24 h ([1]; 0.01N HCl, pH 2.24, simulated gastric fluid, initial pH 1.97, final pH 2.24): < 100 µg/mL
- Solubility ([1]; 0.01N HCl, initial pH 1.97, final pH 2.24): 70 ± 0 µg/mL
- Form (XRPD of residual after solubility test) ([1]; 0.1N HCl): Form A
- solubility at 24 h ([1]; 0.1N HCl, pH 1.08, simulated gastric fluid, initial pH 1.02, final pH 1.08): < 100 µg/mL
- Solubility ([1]; 0.1N HCl, initial pH 1.02, final pH 1.08): 60 ± 0 µg/mL
- Form (XRPD of residual after solubility test) ([1]; FaSSIF): Form A
- Form (XRPD of residual after solubility test) ([1]; FeSSIF): Form A
- Form (XRPD of residual after solubility test) ([1]; SGF): Form A
- XRPD after solubility test (overall) ([1]; all aqueous media): no new forms were found; also recorded: no change
- solubility at 24 h ([1]; pH 4.0 USP buffer (50 mM), pH 4, aqueous buffer, pH 4.0 buffer, initial pH 4.05, final pH 4.13): < 100 µg/mL
- Form (XRPD of residual after solubility test) ([1]; pH 4.0 buffer): Form A
- Solubility ([1]; pH 4.0 buffer, initial pH 4.05, final pH 4.13): 50 ± 10 µg/mL
- solubility at 24 h ([1]; pH 6.8 USP buffer (50 mM), pH 6.8, aqueous buffer, pH 6.8 buffer, initial pH 6.84, final pH 6.87): < 100 µg/mL
- Form (XRPD of residual after solubility test) ([1]; pH 6.8 buffer): Form A
- Solubility ([1]; pH 6.8 buffer, initial pH 6.84, final pH 6.87): 50 ± 0 µg/mL
- solubility at 24 h ([1]; pH 7.4 USP buffer (50 mM), pH 7.4, aqueous buffer, pH 7.4 buffer, initial pH 7.43, final pH 7.46): < 100 µg/mL
- Form (XRPD of residual after solubility test) ([1]; pH 7.4 buffer): Form A
- Solubility ([1]; pH 7.4 buffer, initial pH 7.43, final pH 7.46): 60 ± 10 µg/mL
- Form (XRPD of residual after solubility test) ([1]; pH 10.0 buffer): Form A
- Form (XRPD of residual after solubility test) ([1]; water): Form A
- pKa [2]: could not be detected
